Data published in patent publication US9790407B2, “Aqueous detergent soluble coating and adhesive and methods of temporary bonding for manufacturing” (priority 2013, dated 2017).

Tests used:
[1] = Detergency solubility of carboxylic acid coatings in KOH based system (Example 1); assay type: physicochemical; settings: acidic coating, materials dissolved in DMAC
Protocol: (§1) Water solubility is tested and thermal resistance is indicated for each material.

[2] = Water solubility of carboxylic acid coatings (Example 1); settings: acidic coating; materials dissolved in n,n-dimethylacetamide (DMAC)
Protocol: as §1

## O=C(O)/C=C/C(=O)O [Fumaric Acid]
[1]
  Detergency (KOH based system): Partial
[2]
  Water solubility (observed): Limited/no

## O=C(O)c1cccc(C(=O)O)c1 [Isophthalic acid]
[1]
  Detergency (KOH based system): Yes
[2]
  Water solubility (observed): Limited/no

## O=C(O)c1ccc(O)cc1 [P-hydroxybenzoic acid]
[1]
  Detergency (KOH based system): Yes
[2]
  Water solubility (observed): Limited/no

## O=C(O)c1ccccc1C(=O)O [Phthalic Acid]
[1]
  Detergency (KOH based system): Yes

## O=C(O)c1ccc(C(=O)O)cc1 [Terephthalic acid]
[1]
  Detergency (KOH based system): Partial
